According to ChEMBL document CHEMBL1201862, “PubChem BioAssay data set” (2004):
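Grown in 96-well plates, cells were treated for 48 hours with each compound at five concentrations. Insufficient inhibition: endpoint recorded as highest concentration tested. The concentration for 50% growth inhibition is given as GI50.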 Calls of active or inactive are those of the source. No stated cut-off is given here; in the data, active = GI50 up to about 1.1 µM and inactive = higher.

Legend:
Assay in all cases: DTP human tumour cell line panel, 48 h
M19-MEL = tested on: M19-MEL
XF498 = tested on: XF498
HOP-18 = tested on: HOP-18
LXFL 529 = tested on: LXFL 529
KM-20L2 = tested on: KM-20L2
RXF 631 = tested on: RXF 631
T47D = tested on: T47D
BT-549 = tested on: BT-549

Row | Compound | GI50 (M19-MEL) | GI50 (XF498) | GI50 (HOP-18) | GI50 (LXFL 529) | GI50 (KM-20L2) | GI50 (RXF 631) | GI50 (T47D) | GI50 (BT-549)
1 | O=C1C(Cl)=C(Cl)C(=O)N1c1ccccc1Cl | > 100 µM (inactive) | > 100 µM (inactive) | > 100 µM (inactive) | > 53 µM (inactive) | > 100 µM (inactive) |  |  | 
2 | O=C1CCC2(c3ccccc3)Nc3cc(Cl)ccc3N12 (configuration not stated) | 30.8 µM (inactive) | 19.7 µM (inactive) |  | 31.4 µM (inactive) | 30 µM (inactive) | 47.5 µM (inactive) |  | 
3 | CC1(C)Cc2cc(C(=O)O)c3c(c2C1=O)COCC3 | > 100 µM (inactive) | > 100 µM (inactive) | > 100 µM (inactive) | > 100 µM (inactive) | > 100 µM (inactive) |  |  | 
4 | CCOC(=O)C1C(=O)CC(=O)C2CCCCC21 (configuration not stated) |  | > 100 µM (inactive) |  | > 100 µM (inactive) |  | > 100 µM (inactive) |  | 
5 | NCP(=O)(O)OCC(=O)O |  | > 100 µM (inactive) | > 100 µM (inactive) | > 100 µM (inactive) |  |  |  | 
6 | COc1ccc(/C=C2\CNC/C(=C\c3ccc(OC)cc3)C2=O)cc1 | > 100 µM (inactive) | 63.2 µM (inactive) | > 100 µM (inactive) | 21.8 µM (inactive) | 24.3 µM (inactive) |  |  | 
7 | ON/N=C/c1cc2c(cc1Br)OCO2 | > 386 µM (inactive) |  | > 386 µM (inactive) | > 386 µM (inactive) | > 386 µM (inactive) | > 386 µM (inactive) |  | 
8 | O=[N+]([O-])c1cc(/C=N\NS(=O)(=O)c2ccc(Cl)cc2)c(O)c([N+](=O)[O-])c1 | 48.3 µM (inactive) |  | 42.3 µM (inactive) | 30.6 µM (inactive) | 28.3 µM (inactive) | 28.6 µM (inactive) |  | 
9 | CC(C)(C)C1CCC2c3c([nH]c4ccccc34)C3C(=O)N(c4ccccc4)C(=O)C3C2C1 (configuration not stated) | 7.66 µM (inactive) | 0.389 µM (active) | 4.76 µM (inactive) | 11.3 µM (inactive) |  |  |  | 
10 | COC(=O)N/N=c1\cc(C(=O)Nc2ccc(C)c(C)c2)oc2cc(O)ccc12 | > 100 µM (inactive) | > 100 µM (inactive) | > 100 µM (inactive) | > 100 µM (inactive) | > 100 µM (inactive) | > 100 µM (inactive) |  | 
11 | C[C@@]1(CBr)C[C@@](C)(/C=C/Cl)[C@@H](Cl)C[C@H]1Cl | 13.1 µM (inactive) | 11.7 µM (inactive) | 13.5 µM (inactive) | 10 µM (inactive) | 11.6 µM (inactive) | 11.9 µM (inactive) |  | 
12 | O=C(C[n+]1ccccc1)NNC(=O)/C(=C/c1ccc2c(c1)OCO2)NC(=O)c1ccccc1 | 41.7 µM (inactive) | > 41.2 µM (inactive) | 34.9 µM (inactive) | 38.7 µM (inactive) | > 73.3 µM (inactive) |  |  | 
13 | COc1cc2c(cc1OC)C1(c3ccc(Cl)cc3)ON=C(c3ccccc3)N1CS2 (configuration not stated) | > 100 µM (inactive) |  | > 100 µM (inactive) | > 100 µM (inactive) | > 100 µM (inactive) | > 100 µM (inactive) |  | 
14 | Cc1nnc(N/N=C2\C(=O)Nc3ccccc32)n1N | > 100 µM (inactive) | > 100 µM (inactive) | > 100 µM (inactive) | > 100 µM (inactive) | > 100 µM (inactive) | > 100 µM (inactive) |  | 
15 | CN(C(=O)C12C3C4C1C1C2C3C41C#N)C(C)(C)C (configuration not stated) | > 100 µM (inactive) |  |  | > 100 µM (inactive) | > 100 µM (inactive) | > 100 µM (inactive) |  | 
16 | CC12CC3CC(C)(C1)CC(N=[N+]=[N-])(C3)C2 | > 100 µM (inactive) | > 100 µM (inactive) | > 100 µM (inactive) | > 100 µM (inactive) |  |  |  | 
17 | CN1C(c2ccccc2)CC(=NO)CC1c1ccccc1 (configuration not stated) | 37.5 µM (inactive) |  |  | 52.8 µM (inactive) | 54.6 µM (inactive) | 48.8 µM (inactive) |  | 
18 | C#CC1(O)CCC2[C@@H]3CCc4cc(Oc5nc(F)nc(-c6c7ccccc7c(SCC)n6CCC)n5)ccc4C3CC[C@@]21C (some centres not stated) | > 100 µM (inactive) | > 100 µM (inactive) | 24.2 µM (inactive) | 38.5 µM (inactive) | > 100 µM (inactive) | > 100 µM (inactive) |  | 
19 | CC1=NN(C(=O)c2ccccc2O)C(=O)/C1=C/c1ccco1 | 1.88 µM (inactive) | 25.8 µM (inactive) |  | 1.54 µM (inactive) | 15 µM (inactive) |  | > 100 µM (inactive) | 12.6 µM (inactive)
